Values of other authors, collected in patent publication US20090214599A1, “PROTON PUMP INHIBITOR FORMULATIONS, AND METHODS OF PREPARING AND USING SUCH FORMULATIONS” (AGI THERAPEUTICS PLC, priority 2008, published 2009).

Tests used:
[1] = healthy subjects
[2] = pH <4

Compound: COc1ccc2[nH]c([S+]([O-])Cc3ncc(C)c(OC)c3C)nc2c1 (stereo not drawn) [omeprazole]
- total body clearance [1]: 500 to 600 mL/min
- half-life of degradation in acid conditions [2]: ~10 min
- Protein binding: approximately 95%
